# Columns and labels:
# [1] = test system: picryl chloride-induced dermatitis; assay: Inhibition of picryl chloride-induced dermatitis (type IV allergic inflammation model, ear swelling, Asherson's method); assay type: in vivo, ICR male mice; settings: applied on ear just after challenge, ear thickness at 24 h
# Protocol: Evaluation 1: Inhibition of picryl chloride-induced dermatitis
# Effect of the compounds of the present invention on picryl chloride-induceddermatitis, which is a typical model of type IV allergic inflammation, was estimated by the Asherson's method [Immunology, 15, 405 (1968)] in the following manner.
# A 7% (w/v) solution of picryl chloride in acetone (0.1 mL) was applied on a portion of the abdominal skin of each of ICR male mice to sensitize the mice. After 7 days, a 1% (w/v) solution of picryl chloride in acetone (0.02 mL) was applied on the ears of the individual mice to induce allergic reaction. Just after the challenge, 0.04 mL of acetone (control) or a 0.25-2.5% (w/v) solution of the test compound in acetone was applied on the ear. Increase of the ear thickness of the individual mice was measured at 24 h after the challenge, and inhibitory effect of the test compound on the dermatitis was estimated based on the difference in ear thickness between before and after the induction of the allergic reaction.
# [2] = Metabolite found in plasma after oral administration of the compound of Example 1; assay type: in vivo; settings: compound of Example 1 orally administered to guinea pig
# Text: The title compound was obtained by repeating substantially the same procedure as Example 1, except using 4-(3,5,6-trimethyl-1,4-benzoquinon-2-yl)-2-hydroxy-2-methylbutyric acid which had been prepared by oxidation of 6-hydroxy-2,5,7,8-tetramethylchroman-2-carboxylic acid with ammonium cerium (IV) nitrate (yield 62%).
# [3] = test system: albumin-induced asthma; assay: Inhibition of albumin-induced asthma (air way resistance, double flow plethysmography); assay type: in vivo, Hartley male guinea pigs; settings: 100 mg/kg, orally 1 h before and 3 h after the challenge
# Protocol: Evaluation 2: Inhibition of albumin-induced asthma
# Effect of the compounds of the present invention on albumin-induced asthma was estimated in the following manner.
# Inhalation of 1% ovalbumin using ultrasonic nebulizer into Hartley male guinea pigs was performed 10 min/day over 8 days to sensitize the guinea pigs. One week after the last sensitization, inhalation of 2% ovalbumin was performed for 5 min. to induce allergic reaction. Metyrapone (10 mg/kg, i.v.) was administered at 24 h and 1 h before the challenge, propylene glycol (control) or a solution of the test compound in propylene glycol was orally administered at 1 h before and 3 h after the challenge, and pyrilamine (10 mg/kg, i.p.) was intraperitoneally administered at 30 min before the challenge. Air way resistance was measured by double flow plethysmography at 1 min, 4 h, 5 h, 6 h, 7 h, and 8 h after the challenge, and inhibitory effect of the test compound on the asthma was estimated based on the measurements obtained.
# [4] = concentration 0.75% (w/v) in acetone
# [5] = concentration 0.25% (w/v) in acetone
SMILES,"Inhibition (%) of picryl chloride-induced dermatitis [1, 4]",also measured
Cc1c(C)c2c(c(C)c1O)CC[C@](C)(C(=O)Nc1c(N)n(-c3ccccc3)c(=O)n(C)c1=O)O2 [Example 2],65%,–
"Cc1c(C)c2c(c(C)c1O)CCC(C)(CNc1c(N)n(-c3ccccc3)c(=O)n(C)c1=O)O2 (stereo not drawn) [Example 17, 6-Amino-5-[(6-hydroxy-2,5,7,8-tetramethyl-2-chromanylmethyl)amino]-3-methyl-1-phenyl-2,4 (1H, 3H) -pyrimidinedione]",80%,–
"CC1=C(C)C(=O)C(CCC(C)(O)C(=O)Nc2c(N)n(-c3ccccc3)c(=O)n(C)c2=O)=C(C)C1=O (stereo not drawn) [Example 15, 6-Amino-3-methyl-1-phenyl-5-[4-(3,5,6-trimethyl-1,4-benzoquinon-2-yl)-2-hydroxy-2-methylbutyramido]-2,4 (1H, 3H)-pyrimidinedione]",70%,found in plasma as metabolite of the compound of Example 1 [2]: found in plasma a guinea pig as one of metabolites
"CCCCN(Cc1c(N)n(-c2ccccc2)c(=O)n(C)c1=O)C(=O)C1(C)CCc2c(C)c(O)c(C)c(C)c2O1 (stereo not drawn) [Example 19, 6-Amino-5-(N-butyl-6-hydroxy-2,5,7,8-tetramethylchroman-2-carboxamidomethyl)-3-methyl-1-phenyl-2,4 (1H, 3H)-pyrimidinedione]",–,"Inhibition (%) of picryl chloride-induced dermatitis [1, 5]: 49%"
"CC(=O)Oc1c(C)c(C)c2c(c1C)CCC(C)(C(=O)Nc1c(N)n(-c3ccccc3)c(=O)n(C)c1=O)O2 (stereo not drawn) [Example 14, 5-(6-Acetoxy-2.5,7,8-tetramethvlchroman-2-carboxamido)-6-amino-3-methyl-1-phenyl-2,4 (1H, 3H)-pyrimidinedione]",53%,–
"Cc1c(C)c2c(c(C)c1O)CC[C@@](C)(C(=O)Nc1c(N)n(-c3ccccc3)c(=O)n(C)c1=O)O2 [Example 3, 6-Amino-5-(6-hydroxy-2,5,7,8-tetramethylchroman-2(S)-carboxamido)-3-methyl-1-phenyl-2,4 (1H, 3H) -pyrimidinedione]",69%,–
"CNc1c(NC(=O)C2(C)CCc3c(C)c(O)c(C)c(C)c3O2)c(=O)n(C)c(=O)n1-c1ccccc1 (stereo not drawn) [Example 11, 5-(6-Hydroxy-2,5,7,8-tetramethvlchroman-2-carboxamido)-3-methyl-6-methylamino-1-phenyl-2,4 (1H, 3H) -pyrimidinedione]",44%,–
"Cc1c(C)c2c(c(C)c1O)CCC(C)(C(=O)Nc1c(N)n(-c3ccccc3)c(=O)n(C)c1=O)O2 (stereo not drawn) [Example 1, 6-Amino-5-(6-hydroxy-2,5,7,8-tetramethvlchroman-2-carboxamido)-3-methyl-1-phenyl-2,4 (1H. 3H)-pyrimidinedione]",–,"Inhibition (%) of picryl chloride-induced dermatitis [1, 5]: 69%; inhibition on the air way reaction at 1 min after the challenge ([3]; 1 min after the challenge): 62%; inhibition on the air way reaction (AUC) during 4-8 h after the challenge ([3]; AUC 4-8 h): 50%"
"COc1c(C)c(C)c2c(c1C)CCC(C)(C(=O)Nc1c(N)n(-c3ccccc3)c(=O)n(C)c1=O)O2 (stereo not drawn) [Example 13, 6-Amino-5-(6-methoxy-2,5.7,8-tetramethylchroman-2-carboxamido)-3-methyl-1-phenyl-2,4 (1H, 3H)-pyrimidinedione]",–,Inhibition (%) of picryl chloride-induced dermatitis ([1]; concentration 2.50% (w/v) in acetone): 33%

# From patent publication US5821247A, “Hydroquinone derivative and pharmaceutical use thereof” (Japan Energy Corporation, priority 1996, dated 1998)
